Measured values reported in the NIST ThermoML archive (doi:10.1016/j.jct.2015.02.022).
Structures can show the parent of a compound that is named as a salt. Numbers after ± are expanded uncertainties.

Assays:
[1] = Liquid; for mass density / viscosity: 101.33 kPa; for mass density: Pycnometric method; for vapor or sublimation pressure: Closed cell (Static) method; for viscosity: Capillary tube (Ostwald / Ubbelohde) method
[2] = refractive index (Na D-line) (dimensionless); details: 293.15 K; 101.33 kPa; Liquid; Standard Abbe refractometry

CCOC(=O)C(F)(F)F [ethyl trifluoroacetate]
[1]
Details | mass density [kg/m3] | vapor or sublimation pressure [kPa] | viscosity [mPa·s]
278.08 K | 1218.9 ± 0.8 | – | –
285.15 K | 1205.9 ± 0.8 | – | –
289.23 K | 1197.6 ± 0.8 | – | –
293.35 K | – | 17.93 ± 0.12 | –
293.45 K | – | – | 0.4635 ± 0.0098
293.68 K | 1188.3 ± 0.8 | – | –
296.02 K | – | – | 0.4506 ± 0.0095
298.3 K | – | 22.86 ± 0.15 | –
298.63 K | – | – | 0.4356 ± 0.0092
298.84 K | 1179 ± 0.8 | – | –
300.75 K | – | 25.36 ± 0.17 | –
301.19 K | – | – | 0.4234 ± 0.0089
303.35 K | – | 28.45 ± 0.19 | –
303.75 K | – | – | 0.4107 ± 0.0087
303.86 K | 1168 ± 0.8 | – | –
305.85 K | – | 31.2 ± 0.21 | –
306.3 K | – | – | 0.3986 ± 0.0084
307.89 K | 1160.9 ± 0.8 | – | –
308.35 K | – | 34.13 ± 0.23 | –
308.85 K | – | – | 0.3881 ± 0.0082
310.85 K | – | 38 ± 0.25 | –
311.33 K | – | – | 0.3775 ± 0.008
312.65 K | 1151.4 ± 0.8 | – | –
313.35 K | – | 42.3 ± 0.28 | –
313.93 K | – | – | 0.3674 ± 0.0078
315.85 K | – | 47.2 ± 0.31 | –
316.43 K | – | – | 0.3581 ± 0.0076
317.43 K | 1142.2 ± 0.8 | – | –
318.4 K | – | 52 ± 0.35 | –
318.96 K | – | – | 0.3497 ± 0.0074
320.97 K | – | 57.2 ± 0.38 | –
321.63 K | – | – | 0.3399 ± 0.0072
322.5 K | 1131.3 ± 0.8 | – | –
323.45 K | – | 63.2 ± 0.42 | –
324.15 K | – | – | 0.3314 ± 0.0071
326.15 K | – | 70.64 ± 0.47 | –
326.69 K | – | – | 0.323 ± 0.007
328.75 K | – | 77.9 ± 0.52 | –
329.16 K | – | – | 0.3153 ± 0.0067
331.45 K | – | 86.5 ± 0.57 | –
331.64 K | – | – | 0.3075 ± 0.0066
334.05 K | – | 94.15 ± 0.62 | –
334.32 K | – | – | 0.3009 ± 0.0064
335.25 K | – | 99.92 ± 0.66 | –
335.65 K | – | 101.33 ± 0.67 | –

Details | refractive index
[2] | 1.3086 ± 0.0007

CO [methanol]
[1]
Details | vapor or sublimation pressure [kPa] | viscosity [mPa·s]
293.35 K | 13.54 ± 0.09 | –
302.45 K | – | 0.513 ± 0.011
303.35 K | 22.05 ± 0.15 | –
310.85 K | 31.07 ± 0.21 | –
313.5 K | – | 0.443 ± 0.009
320.97 K | 49.45 ± 0.33 | –
323.55 K | – | 0.386 ± 0.008
331.45 K | 77.05 ± 0.51 | –
333.85 K | – | 0.345 ± 0.007
335.95 K | 95.83 ± 0.64 | –
